Source: patent publication US20160000762A1, “IMPROVING COGNITIVE FUNCTION” (THE REGENTS OF THE UNIVERSITY OF CALIFORNIA, priority 2013, published 2016)

Assays:
[1] = Fear conditioning, wild-type mice; assay type: in vivo; conditions: 30 mg/kg daily for 2 weeks
Protocol: Fear conditioning. Before initiating fear-conditioning tests, wild-type mice were injected daily with BTA-EG4 or vehicle for 2 weeks (n=8/group). Mice were subsequently trained by exposure to a conditioning box (context) for 3 min before administering a tone (18 s) and footshock (2 s), which were repeated twice at 1 min intervals. We performed the contextual test 24 h after training by re-exposing the mice to the conditioning context. A measurement of freezing behavior was recorded every minute for 3 min inside of the conditioning box. The cued test was conducted 3 h following the contextual test. Following a 3 min reexposure to the conditioning box, a tone (18 s) was administered and freezing behavior was measured for 1 min.

APP = tested on: T1, APP; assay: Live cell surface immunostaining, primary hippocampal neurons; assay type: cell-based, Sprague-Dawley rats; conditions: 5 μM, 24 h
T1 construct: expressed in transfected cells; host or cells: primary hippocampal neurons from E19 Sprague-Dawley rats
T1 sequence (P05067 18-770): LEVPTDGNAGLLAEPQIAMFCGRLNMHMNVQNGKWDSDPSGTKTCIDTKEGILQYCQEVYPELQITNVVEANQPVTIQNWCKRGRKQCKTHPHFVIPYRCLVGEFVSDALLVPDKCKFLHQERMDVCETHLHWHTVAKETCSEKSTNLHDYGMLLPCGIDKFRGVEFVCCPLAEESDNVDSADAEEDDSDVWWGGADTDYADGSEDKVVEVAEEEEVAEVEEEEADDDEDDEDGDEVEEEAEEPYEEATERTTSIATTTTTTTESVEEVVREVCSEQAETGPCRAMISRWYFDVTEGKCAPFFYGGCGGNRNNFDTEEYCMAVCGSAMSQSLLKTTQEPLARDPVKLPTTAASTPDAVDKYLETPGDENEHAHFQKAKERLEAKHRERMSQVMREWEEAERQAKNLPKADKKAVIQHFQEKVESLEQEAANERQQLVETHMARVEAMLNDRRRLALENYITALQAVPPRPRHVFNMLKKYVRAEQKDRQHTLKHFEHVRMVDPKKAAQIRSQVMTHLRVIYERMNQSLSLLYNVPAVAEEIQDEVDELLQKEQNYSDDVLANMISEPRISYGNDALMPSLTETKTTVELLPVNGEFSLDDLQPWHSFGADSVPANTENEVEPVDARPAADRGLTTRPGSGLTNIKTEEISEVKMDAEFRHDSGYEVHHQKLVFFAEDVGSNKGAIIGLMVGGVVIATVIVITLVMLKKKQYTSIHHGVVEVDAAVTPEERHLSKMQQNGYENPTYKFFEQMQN
Protocol: Primary neuron culture and immunostaining. Primary hippocampal neurons from E19 Sprague-Dawley rats were cultured at 150 cells/mm^2 as previously described (Pak et al., 2001). Neurons were transfected using Lipofectamine™ 2000 (Invitrogen, Carlsbad, Calif., USA) or calcium phosphate precipitation with GFP+PLL, GFP+APP shRNA, or GFP+APP and treated with BTA-EG4. The following antibodies were used: mouse anti-GFP (Novus Biologicals, 9F9.F9), rabbit anti-GFP (Invitrogen, A11122), rabbit anti-GluR1 (Calbiochem, PC246), mouse anti-GluR2 (BD Pharmagen, 556341), mouse anti-postsynaptic density (PSD)-95 (NeuroMabs, Davis, Calif., USA), mouse anti-Synaptophysin (Sigma Aldrich, s5768), rabbit APP N-terminal (Sigma-Aldrich, A8967), anti-Ras (BD Biosciences, 610001), anti-RasGRF1 (Santa Cruz, C-20; BD Biosciences, 610149), anti-ERK1/2 (Cell Signaling, 4695), anti-p-ERK1/2 (Invitrogen, 36880), anti-CREB (Cell Signaling, D76D11), anti-p-CREB (Millipore, 06-519), and mouse anti-c-Myc (Novus Biologicals, 9E10). Cultured hippocampal neuron images were acquired by LSM 510 laser scanning confocal microscope (Zeiss). Confocal zseries image stacks encompassing entire dendrite segments were analyzed using MetaMorph software (Universal Imaging Corporation, Downington, Pa., USA).
Live cell surface immunostaining. […] Surface-labeled APP was detected with ALEXA FLUORO-555 secondary antibodies. […]

dendritic spines = assay: Golgi staining, dendritic spine density and morphology in 3× Tg AD mice; assay type: in vivo
Protocol: Golgi staining and morphological analysis of dendritic spines. Dendritic spine density and morphology analyses in the brain were conducted using the FD RAPID GOLGISTAIN KIT™ (FD NeuroTechnologies, Ellicott City, Md., USA). Mouse brains were dissected, immersed in Solutions A and B (2 weeks, room temperature, dark conditions), and then transferred to Solution C (24 h, 4° C.). A VT1000S Vibratome (Leica, Bannockburn, Ill., USA) was then used to slice brains 150 μm thick. Bright-field microscopy acquired dendritic images by Axioplan 2 (Zeiss, Oberkochen, Germany). Scion image software (Scion Corporation, Frederick, Md., USA) allowed measurement of spine head width, spine length, and linear density of cortical layers II/III and CA1 of the hippocampus. Images were coded and analyzed blind to experimental conditions. To measure dendritic spine density, we included spines from 0.2 to 2 μmin length, with at least 25 apical oblique (AO) and basal (BS) dendritic observations averaged from each animal (n=4-5 brains for 2-3 months old/group and 6-10 months old/group, n=3 brains for 13-16 months old/group). To measure spine morphology, we included spines up to 1.4 μm in width and 3.2 μm in length.
BTA-EG4 alters dendritic spine density in the cortex and hippocampus. […] In the present study, we investigated whether BTA-EG4 improves dendritic spine density in a mouse model of AD. For this study, we selected the 3× Tg AD mouse model due to its ability to model the progression of human AD (Oddo et al., 2003). […] To assess its effectiveness throughout disease progression, 2-3 month, 6-10 month, and 13-16 month old 3× Tg AD mice were injected with BTA-EG4 (30 mg/kg, i.p.) or vehicle (10% DMSO) daily for 2 weeks. The 2-week duration of treatment was selected because it increased dendritic spine density and improved memory in wild-type mice (Megill et al., 2013). After the treatment, we conducted Golgi staining to measure dendritic spine density (FIGS. 10A-10J, FIGS. 15A-15H and FIGS. 16A-16B).

[2] = Cerebrovascular permeability and pharmacokinetic analysis of BTA-EG4 in mice; assay type: in vivo, male CD-1 mice; conditions: 10 mg/kg i.p.
Protocol: Cerebrovascular permeability and pharmacokinetic analysis of BTA-EG4 in wild-type mice. The partitioning of BTA-EG4 between plasma and brain was studied in male CD-1 mice. The mice were dosed with 10 mg/kg (in 10% DMSO/90% PBS) intraparitoneally (IP, n=2 per time point) and the concentration of BTA-EG4 in the plasma and brain was measured over time. Blood was collected via cardiac puncture and was pooled in EDTA tubes, centrifuged, and the plasma isolated. The brain was collected from each mouse, snap frozen, and homogenized in 2 mL PBS. The concentration of BTA-EG4 in the plasma and brain at each time point was determined by LC/MS/MS and the concentrations of BTA-EG4 in the plasma and brain were plotted as a function of time. Pharmacokinetic parameters for the plasma and brain profile of BTA-EG4 were also calculated: half-life for BTA-EG4 in the plasma and brain (t1/2), the maximum concentration (Cmax) of BTA-EG4 in the plasma and brain, the area under the concentration-time curve (AUC), the brain-to-plasma ratio (BB), and the logarithmic brain-to-plasma ratio (Log BB).

Substance: BTA-EG4
- freezing, contextual test [1]: significantly increased
- freezing, cued test [1]: significantly increased
- cell surface levels of APP (APP): increased
- total levels of APP (APP): without affecting
- dendritic spine length (dendritic spines; 13-16 months): neither the width nor length of dendritic spines changed
- dendritic spine width (dendritic spines; 13-16 months): neither the width nor length of dendritic spines changed
- hippocampal spine density (dendritic spines; CA1, 13-16 months, 30 mg/kg daily, 2 weeks): only a trend toward an increase
- dendritic spine width (dendritic spines; cortex and hippocampus, 6-10 months, 30 mg/kg): wider
- dendritic spine length (dendritic spines; cortical layers II/III and hippocampus, 6-10 months, 30 mg/kg): longer
- dendritic spine density (dendritic spines; cortical neurons, 13-16 months, 30 mg/kg i.p. daily, 2 weeks): improved
- overall density of dendritic spines (dendritic spines; hippocampus CA1, 2-3 months, 30 mg/kg i.p. daily, 2 weeks): significantly increased
- overall density of dendritic spines (dendritic spines; hippocampus CA1, 6-10 months, 30 mg/kg i.p. daily, 2 weeks): significantly increased
- overall density of dendritic spines (dendritic spines; layers II/III of the cortex, 2-3 months, 30 mg/kg i.p. daily, 2 weeks): significantly increased
- overall density of dendritic spines (dendritic spines; layers II/III of the cortex, 6-10 months, 30 mg/kg i.p. daily, 2 weeks): significantly increased
- blood brain barrier crossing [2]: readily crosses the blood brain barrier
- logarithmic brain-to-plasma ratio (log BB) ([2]; n=2 per time point, estimated value): 0.43
